Experiments:
[1] = system: antibiotic-induced damage; settings: tumor cells and normal host tissues; cited from earlier work
[2] = system: antibiotic-induced free radical-mediated damage; settings: humans; cited from earlier work
heart = assay: Cardiac evaluation / heart damage score and autopsy, Study No. 1 (Example II); format: in vivo, Balb/c female mice
Text: A pathologist examined the heart of each mouse without prior knowledge of whether the animal received doxorubicin or placebo and methylene blue ur placebo. Cages were inspected twice daily for dead animals and autopsies were done immediately. The animals' hearts were washed in normal saline, fixed in formalin and embedded in glycol methacrylate. One-micron sections were inspected by light microscopy. The condition of the hearts was scored as follows: normal-1; slightly damaged-2; moderately damaged-3; severely damaged-4. Five specific categories or criteria were utilized for this evaluation: vacuolization; myofibrillar and nuclear degeneration; necrosis; interstitial edema; and interstitial inflammation. The numerical scores were averaged for each heart to yield an overall tabulation of damage.
In the course of this study, the cages were inspected twice daily for dead animals, and within twelve hours of death an autopsy was performed upon each animal that died. The heart was excised, inspected, washed in normal saline and fixed in 10% formalin. Upon terminatiun of this study, animals which had received no doxorubicin were killed by cervical dislocation and their hearts were handled in accordance with the procedures outlined earlier above.
Nonetheless, this difference in mean value was not statistically significant at the 5% level (f=2.3, p<0.1 and>0.05).

doxorubicin lethality [3] = assay: Effects of methylene blue on doxorubicin toxicity, survival, Study No. 2 (Example II)
Experimental: (§1) Mice were obtained from Laboratory Supply Company, Inc., Indianapolis, Indiana. […] The light was maintained between 6:00 in the morning and 6:00 at night, and food and water were freely available. The rooms the mice were maintained in were sound insulated and kept at a constant relative humidity with a temperature ranging between 23° and 25° C. All animals were kept undisturbed except for a weekly cage cleaning, for 21 to 28 days after receipt from the animal supplier and prior to the experimentation. Four mice of the same sex were kept in each cage because of the well-known effects of isolation upon various biologic parameters. […] (See, Levi, F., Halberg, F., Haus, E., Sanchez, S., Sothern, R. B., Halberg, E., Hrushesky, W., Brown, H., Scheving, L. E., and Kennedy, B. J., "Synethetic Adrenocorticotropin for Optimizing Murine Circadian Chronotolerance for Adriamycin", CHRONOBIOLOGIA. 7(#2):227-244 (1980)).
(§2) The anthracycline antibiotic doxorubicin (NDC 38242-874-10, obtained from Adria Laboratories, Inc., Columbus, Ohio) was prepared to a concentration of 2 mg/ml in saline immediately prior to administration to the mice. Administration was by injection either intravenously through a transilluminated tail vein or intraperitoneally. The doxorubicin was administered in an amount per body weight of mouse of 18 mg/kg.
T-tests were used when comparing variances between two groups. […]

doxorubicin lethality [4] = assay: Effect of lesser doses of methylene blue on doxorubicin toxicity, survival (Example III)
Experimental: as §1, §2
T-tests were used when comparing variances between two groups. When the variance of means were compared among several groups, analysis of variance was used. Multivariate mean analysis was used when comparing groups of individuals sharing common characteristics which were anticipated might possibly affect the outcome of the statistical analysis. […] Chi-square analyses were used to compare survival percentages between and among various treatment groups at appropriate truncation points. Gehan-Wilcoxon Life Table Analyses were used to complement multivariate survival analyses in order to properly weight long-term survivors.

L1210 leukemia cells = assay: Effect of methylene blue on anti-neoplastic activity of doxorubicin (Example IV); format: in vivo, CD2 F1 female mice
Experimental: A strain of leukemia identified as L1210 was obtained from Arthur Bogden of the E. G. Mason Research Institute Animal and Human Tumor Bank, Worcester, Massachusetts. The tumor was kept in passage in DBA female mice. The tumor used for the below described experiments was between its tenth and twentieth in vivo passage. […] The tumor grows in ascites, which is initially clear and proceeds, within the 24 to 36 hours prior to death, to become hemorrhagic.
Accordingly, it was determined to assess tne anti-tumor efficacy of doxorubicin administered with and without methylene blue. For these studies, 120, 12 to 14 week old female CD2 F1 mice were each given 70,000 live L1210 leukemia cells 4 hours after the lights were turned on in the cages. The mice were then randomly assigned to one of seven treatment groups.

[5] = Doxorubicin lethality, CD2 F1 mice; format: in vivo
[6] = Doxorubicin lethality, Balb/c mice; set-up: species or system Balb/c female mice; settings: mouse, in vivo
cellular proteins = assay: Examination of tissues after doxorubicin administration; settings: tissues subsequent to doxorubicin administration
Text: The present inventor has likewise reasoned that the reduction of the oxidant stress-inducing antibiotics may be promoted by interaction with either NADH or NADPH, or their reducing proteins. […] It is therefore possible that the oxidation of NADH or NADPH may occur indirectly by the interaction of the antibiotic with these reducing proteins acting as mediators, either in addition to or in place of a direct interaction between the antibiotic and NADH or NADPH alone.

[7] = cited from earlier work
microsomal systems = settings: from NADPH and NADH; cited from earlier work
[8] = system: hepatic microsomes and heart sarcosomes; settings: cited from earlier work
[9] = system: cardiac submitochondrial particles; settings: cited from earlier work
[10] = Effects of methylene blue on anthracycline toxicity, survival, Study No. 1 (Example II); settings: mouse, in vivo, 18 mg/kg
doxorubicin lethality [11] = assay: as above
hepatic GSH = assay: Effect of methylene blue on hepatic GSH levels (Example I); format: in vivo, CD2 F1 female mice; settings: 25 mg methylene blue iv; 4 h; 33 week old; n=9; saline 15.03±4.33; f=6.03, p<0.03
Experimental: Total glutathione, oxidized and reduced (GSSG and GSH respectively), was determined by a modification of the method of Tietze (Tietze, F., ANAL. BIOCHE., 27:502-522 (1969). GSH was determined by the method of Prins and Loos (Prins, H. K. and Loos, J. A., "In Biochemical Methods in Red Cell Genetics", J. Yunis, ed., Academic Press, New York, (1969)).
Because maintenance of GSH is an NADPH-dependent process, decrements in intracellular NADPH were postulated to lead to a decrease in GSH concentration. […] Hepatic GSH was similarly observed and noted to behave in corresponding fashion.

in vivo = settings: mouse, 550 mg/kg
[12] = previous studies in mice, dogs and humans; cited from earlier work

**Q.** For `CC(=O)N[C@@H](CS)C(=O)O` [N-acetyl cysteine], which “protection from antibiotic-induced damage” value [1] is on record?
**A.** The value was “mixed results”.

**Q.** With `Cc1c(C)c2c(c(C)c1O)CCC(C)(CCCC(C)CCCC(C)CCCC(C)C)O2` (stereo not drawn) [Vitamin E, α-tocopherol] as the compound, how does the “effect on antibiotic-induced damage at tolerable doses” value [2] read?
**A.** The value was “failed to work at tolerable doses in humans”.

**Q.** Which results are given for `COc1cccc2c1C(=O)c1c(O)c3c(c(O)c1C2=O)C[C@@](O)(C(=O)CO)C[C@@H]3O[C@H]1C[C@H](N)[C@H](O)[C@H](C)O1` [doxorubicin, 14-hydroxydaunomycin]?
**A.** visual appearance of hearts (heart; animals receiving doxorubicin): often pale and had a patchy fibrotic appearance; most prominent heart finding (heart; animals which did not receive methylene blue): degeneration of myocytes; pleural fluid, pulmonary consolidation and ascites (heart; autopsy, animals which had received doxorubicin): often present; heart damage score, without methylene blue (heart; doxorubicin 18 mg/kg, no methylene blue, normal score=1.0, f=2.3, p<0.1 and >0.05): 2.8±1.3; mean survival time, without methylene blue (doxorubicin lethality [3]; doxorubicin 18 mg/kg iv plus placebo, truncated at 130 days, n=7): 85 ± 7 days; average survival, doxorubicin intraperitoneally (doxorubicin lethality [4]; doxorubicin 18 mg/kg ip, f=27.4, p<0.001): 6.2 ± 0.8 days; average survival, saline placebo (doxorubicin lethality [4]; doxorubicin 18 mg/kg iv or ip plus saline placebo, f=10.8, p<0.001): 7.2 ± 0.6 days; mortality (doxorubicin lethality [4]; doxorubicin 18 mg/kg iv or ip, with methylene blue or saline): All of the mice succumbed to doxorubicin; average survival, doxorubicin intravenously (doxorubicin lethality [4]; doxorubicin 18 mg/kg iv, f=27.4, p<0.001): 11.2 ± 0.6 days; survival, doxorubicin and placebo (L1210 leukemia cells; 70,000 L1210 cells, doxorubicin and placebo): 14.4 ± 1.2 days; increased life span (L1210 leukemia cells; single doxorubicin treatment 3 days after tumor implantation, F=124, p<0.001): 160%; survival of CD2 F1 relative to Balb/c mice ([5]; 18 mg/kg iv, compared with Balb/c mice): more than 3 times longer; mortality at 720 h ([5]; mouse, in vivo, 18 mg/kg ip, 30 days, CD2 F1, read-out: mortality within 30 days, intraperitoneal): > 80%; mortality ([5]; mouse, in vivo, 18 mg/kg iv, CD2 F1): ~100%; mortality at 720 h ([6]; 18 mg/kg ip, 30 days, Balb/c female, read-out: mortality within 30 days, intraperitoneal): 100%; mortality ([6]; 18 mg/kg iv, Balb/c): ~100%; complexation with cellular proteins (cellular proteins): some complexation; solubility [7]: soluble in water, methanol and other aqueous alcohols but is practically insoluble in acetone, benzene, chloroform, ethyl ether and petroleum ether; free radical production (microsomal systems): causes the production of free radicals; oxygen consumption [8]: increases oxygen consumption; superoxide formation [9]: stimulates superoxide formation; mortality at 360 h [10]: > 50%; effect of route of administration of doxorubicin (doxorubicin lethality [11]; doxorubicin 18 mg/kg iv vs ip, two-way analysis of variance): no significant effect of the particular route of administration

**Q.** Which “mean hepatic GSH levels” value (hepatic GSH) does the source give for `CN(C)c1ccc2nc3ccc(=[N+](C)C)cc-3sc2c1` [methylene blue, methylthionine chloride] here?
**A.** Its value is 9.30±5.50 μMol/g protein.

**Q.** And the “pleural fluid, pulmonary consolidation and ascites” value (heart; animals killed after saline and/or methylene blue only)?
**A.** The value was “never”.

**Q.** What about the “visual appearance of hearts” value (heart; animals not receiving doxorubicin (saline and/or methylene blue)) of the same compound?
**A.** The value was “appeared visually normal”.

**Q.** And the “heart damage score, with methylene blue” value (heart; doxorubicin 18 mg/kg plus methylene blue iv, normal score=1.0, f=2.3, p<0.1 and >0.05 (not significant))?
**A.** Its value is 1.8±0.9.

**Q.** And the “average survival, with methylene blue” value (doxorubicin lethality [3]; doxorubicin 18 mg/kg iv plus methylene blue 4 x 25 mg/kg (iv, then ip 1, 3, 6 h), 130 days, n=8, t=4.0, p<0.001)?
**A.** Its value is 113 ± 0.5 days.

**Q.** And the “average survival, with methylene blue” value (doxorubicin lethality [4]; doxorubicin 18 mg/kg iv or ip plus methylene blue 25 mg/kg iv, f=10.8, p<0.001)?
**A.** The value was 10.3 ± 1 days.

**Q.** What about the “survival, doxorubicin followed by methylene blue” value (L1210 leukemia cells; 70,000 L1210 cells, doxorubicin followed by methylene blue 25 mg/kg iv 30 min after, then sc 1.5-48 h) of the same compound?
**A.** Its value is 14.7 ± 0.5 days.

**Q.** And the mortality (in vivo)?
**A.** Its mortality is 50%.

**Q.** What about the “tolerability at 25 mg/kg” value [12] of the same compound?
**A.** Its value is “well tolerated”.

**Q.** And the “survival, methylene blue without doxorubicin” value (doxorubicin lethality [11]; saline and methylene blue iv, no doxorubicin, study follow-up period)?
**A.** Its value is “lived throughout the study follow-up period”.

Reference: US4548927A, “Method and agents for raising animal tolerance to oxidant stress-inducing antibiotics” (priority 1983, dated 1985)
